# Earlier results, collected in patent publication US20120282337A1, “Modified Release Formulation” (BOEHRINGER INGELHEIM INTERNATIONAL GMBH, priority 2006, published 2012).
# Structures can show the parent of a compound that is named as a salt.
# How the values were obtained:
# [1] = in vivo
# [2] = not given; remark: listed apart in the source
# dopamine D2 receptor = dopamine D2 receptor (Homo sapiens, UniProt P14416)
# Sequence of dopamine D2 receptor (P14416 whole entry, species assumed): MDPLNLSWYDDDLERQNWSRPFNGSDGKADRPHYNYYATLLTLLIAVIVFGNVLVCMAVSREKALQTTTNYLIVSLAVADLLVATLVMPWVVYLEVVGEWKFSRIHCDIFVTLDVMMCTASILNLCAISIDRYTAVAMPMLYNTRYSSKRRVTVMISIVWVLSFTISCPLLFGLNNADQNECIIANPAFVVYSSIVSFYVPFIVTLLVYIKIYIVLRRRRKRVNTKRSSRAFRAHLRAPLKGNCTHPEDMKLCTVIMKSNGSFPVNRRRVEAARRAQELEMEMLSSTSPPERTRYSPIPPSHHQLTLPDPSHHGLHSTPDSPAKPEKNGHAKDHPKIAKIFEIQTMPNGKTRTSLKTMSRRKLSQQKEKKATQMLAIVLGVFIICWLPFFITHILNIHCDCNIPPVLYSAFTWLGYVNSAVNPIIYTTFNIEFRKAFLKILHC
solubility in buffer media (between pH 2 and pH 7.4),Water solubility (water),kinetics [1],stability in solution ([2]; in solution),stability in the solid state ([2]; solid state),agonist type at dopamine D2 receptor (dopamine D2 receptor),SMILES
above 10 mg/ml,more than 20 mg/ml,,,,,"CCCN[C@H]1CCc2nc(N)sc2C1 [Pramipexole dihydrochloride monohydrate, pramipexole dihydrochloride monohydrate]"
,,linear kinetics,light sensitive,very stable,full agonist,"CCCN[C@H]1CCc2nc(N)sc2C1 [Pramipexole, (S)-2-Amino-4,5,6,7-tetrahydro-6-(propylamino)benzothiazole]"
